Measurements reported in patent publication US9981909B2 (Janssen Pharmaceutica NV, priority 2008, dated 2018).
Structures can show the parent of a compound that is named as a salt.

Experiments:
r5-HT7 receptor = r5-HT7 receptor (Rattus norvegicus (Rat), UniProt P32305); assay: HitHunter cAMP assay, antagonist testing against 100 nM 5-CT; format: cell-based; conditions: antagonist testing, 100 nM 5-CT challenge, HEK-293 r5-HT7; read-out: R5HT7 cAMP pKb (converted)
Description: (§1) Receptor binding was performed using membrane fractions prepared from the HEK-293 cell line recombinantly expressing rat 5-HT7 receptors (NCBI accession NM_022938). Compound affinity for the rat 5-HT7 receptor subtype was evaluated by competitive radioligand binding assays using 5-carboxamido[^3H]tryptamine ([^3H]5-CT) (Amersham Biosciences, cat. 90000403) detection. HitHunter™ cAMP assays are in-vitro based competitive immunoassays. The assay was performed on the HEK-293 cell line stably transfected with r5-HT7 receptor. Cells were pre-incubated with test compounds for 10 minutes. For antagonist testing, the cells were then challenged with 100 nM 5-CT for 20 minutes. Cells were then lysed and cAMP measured according to manufacturers protocol (Amersham, cat. NET791250UC) or [^3H]mesulergine (Amersham, cat. TRK1041). The assay was performed on membranes prepared from HEK-293 cells stably transfected with h5-HT6. Following centrifugation, membranes were resuspended and incubated for 60 min at room temperature with 1.7 nM [^3H]LSD in the presence of increasing concentration of test compounds. Nonspecific binding was defined in the presence of 10 μM clozapine (Tocris, cat. TRK1068). Homogenized HEK-293 membranes expressing the human SERT were incubated in 50 mM Tris-HCl (pH 7.5), 120 mM NaCl, 5 mM KCl with [^3H]-citalopram (3 nM) with or without test compounds. Nonspecific binding was determined in the presence of 10 μM fluoxetine. Radioactivity readouts and Ki values were performed as previously described for r5-HT7. […] Compounds were assayed in their free form or as salts, as indicated in the Examples section above.

human SERT = human SERT (Homo sapiens (Human), UniProt P31645); assay: human SERT binding assay with [3H]-citalopram on HEK-293 membranes; conditions: read-out: hSERT binding Ki
Chain of human SERT (P31645 whole entry): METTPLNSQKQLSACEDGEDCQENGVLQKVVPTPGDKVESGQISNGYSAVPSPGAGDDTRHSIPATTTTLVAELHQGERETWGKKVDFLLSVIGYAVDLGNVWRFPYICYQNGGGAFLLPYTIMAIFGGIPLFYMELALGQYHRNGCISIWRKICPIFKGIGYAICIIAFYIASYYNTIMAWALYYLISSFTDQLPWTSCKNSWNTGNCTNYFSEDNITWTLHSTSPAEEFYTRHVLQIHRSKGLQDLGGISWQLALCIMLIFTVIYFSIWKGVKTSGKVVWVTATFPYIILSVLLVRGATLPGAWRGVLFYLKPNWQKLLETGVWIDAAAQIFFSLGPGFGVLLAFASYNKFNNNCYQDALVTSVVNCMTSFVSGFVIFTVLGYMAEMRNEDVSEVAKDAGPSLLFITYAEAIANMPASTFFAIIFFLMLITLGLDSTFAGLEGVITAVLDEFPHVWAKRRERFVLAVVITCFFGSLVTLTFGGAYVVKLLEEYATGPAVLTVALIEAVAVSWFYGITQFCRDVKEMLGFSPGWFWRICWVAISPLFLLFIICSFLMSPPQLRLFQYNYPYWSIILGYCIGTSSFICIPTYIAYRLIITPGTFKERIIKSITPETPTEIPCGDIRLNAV
Description: as §1

rat 5-HT7 receptor = rat 5-HT7 receptor (Rattus norvegicus (Rat), UniProt P32305); assay: r5-HT7 binding assay, competitive radioligand binding with [3H]5-CT
Chain of rat 5-HT7 receptor (P32305 1-435): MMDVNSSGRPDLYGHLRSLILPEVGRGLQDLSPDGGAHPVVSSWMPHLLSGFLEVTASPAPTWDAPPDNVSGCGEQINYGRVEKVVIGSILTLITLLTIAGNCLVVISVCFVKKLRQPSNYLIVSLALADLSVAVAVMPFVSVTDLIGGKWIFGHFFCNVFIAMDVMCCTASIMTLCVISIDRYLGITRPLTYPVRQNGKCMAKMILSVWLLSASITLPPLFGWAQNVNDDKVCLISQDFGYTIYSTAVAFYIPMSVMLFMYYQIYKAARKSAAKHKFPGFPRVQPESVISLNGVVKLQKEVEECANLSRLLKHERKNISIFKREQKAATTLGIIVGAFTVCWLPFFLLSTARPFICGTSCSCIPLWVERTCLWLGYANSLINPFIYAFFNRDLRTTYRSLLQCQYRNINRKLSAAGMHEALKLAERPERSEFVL
Method in brief: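 Whole r5-HT7-transfected HEK-293 cells first received test compound for 10 min. They were then exposed to 100 nM 5-CT for 20 min before lysis and competitive immunoassay of cAMP. Affinity came from displacement of [3H]5-CT on membranes of the same recombinant line, expressed as Ki.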

[1] = rat 5-HT7 receptor, HEK-293 membranes

Chain of r5-HT7 receptor (P32305 1-435): as above

Clc1ccc(Oc2ccc3ccccc3c2)c(OC2CNC2)c1 [Example 260, 3-[5-Chloro-2-(naphthalen-2-yloxy)-phenoxy]-azetidine]
Kb (r5-HT7 receptor): 1000 nM
Ki (human SERT): 2 nM
Ki (rat 5-HT7 receptor; rat 5-HT7, HEK-293 membranes): 16 nM

CC(Oc1ccc(Cl)cc1OC1CNC1)c1cccc(C(F)(F)F)c1 (racemic) [Example 105, (±)-3-[5-Chloro-2-[1-(3-trifluoromethyl-phenyl)-ethoxy]-phenoxy]-azetidine]
Kb (r5-HT7 receptor): 50.1 nM
Ki (human SERT): 193 nM
Ki (rat 5-HT7 receptor; [1]): 23 nM

CC(C)N1CC(Oc2cc(F)ccc2OCc2ccc(C(F)(F)F)o2)C1 [Example 209, 3-[5-Fluoro-2-(5-trifluoromethyl-furan-2-ylmethoxy)-phenoxy]-1-isopropyl-azetidine]
Kb (r5-HT7 receptor): 20 nM
Ki (human SERT): 20 nM
Ki (rat 5-HT7 receptor; [1]): 13 nM

CN1CCC(Oc2cc(Br)ccc2OCc2cccc(Cl)c2)CC1 [Example 66, 4-[5-Bromo-2-(3-chloro-benzyloxy)-phenoxy]-1-methyl-piperidine]
Kb (r5-HT7 receptor): 50.1 nM
Ki (rat 5-HT7 receptor; [1]): 10 nM

Clc1cccc(Oc2ccc(Br)cc2OC2CNC2)c1 [Example 252, 3-[5-Bromo-2-(3-chloro-phenoxy)-phenoxy]-azetidine]
Kb (r5-HT7 receptor): 63.1 nM
Ki (human SERT): 60 nM
Ki (rat 5-HT7 receptor; rat 5-HT7, HEK-293 membranes): 7 nM

FC(F)(F)c1ccc2c(c1)C(Oc1ccc(Br)cc1OC1CNC1)CC2 (racemic) [Example 157, (±)-3-[5-Bromo-2-(6-trifluoromethyl-indan-1-yloxy)-phenoxy]-azetidine]
Kb (r5-HT7 receptor): 5.01 nM
Ki (human SERT): 181 nM
Ki (rat 5-HT7 receptor; [1]): 10 nM

Clc1ccc(COc2ccc(Cl)cc2OC2CNC2)cc1 [Example 36, 3-[5-Chloro-2-(4-chloro-benzyloxy)-phenoxy]-azetidine trifluoroacetate]
Kb (r5-HT7 receptor): 794 nM
Ki (human SERT): 36 nM
Ki (rat 5-HT7 receptor; [1]): 15 nM

CCCN1CC(Oc2cc(Br)ccc2OCc2cccc(Cl)c2)C1 [Example 4, 3-[5-Bromo-2-(3-chloro-benzyloxy)-phenoxy]-1-propyl-azetidine]
Kb (r5-HT7 receptor): 0.631 nM
Ki (rat 5-HT7 receptor; [1]): 8 nM

Brc1ccc(OC2Cc3ccccc3C2)c(OC2CNC2)c1 [Example 174, 3-[5-Bromo-2-(indan-2-yloxy)-phenoxy]-azetidine]
Kb (r5-HT7 receptor): 6.31 nM
Ki (human SERT): 42 nM
Ki (rat 5-HT7 receptor; [1]): 6 nM

FC(F)(F)c1cccc(COc2ccc(Cl)cc2OC2CNC2)c1 [Example 39, 3-[5-Chloro-2-(3-trifluoromethyl-benzyloxy)-phenoxy]-azetidine]
Kb (r5-HT7 receptor): 3.16 nM
Ki (human SERT): 4 nM
Ki (rat 5-HT7 receptor; [1]): 7 nM

Fc1ccccc1COc1ccc(Br)cc1OC1CCNCC1 [Example 67, 4-[5-Bromo-2-(2-fluoro-benzyloxy)-phenoxy]-piperidine]
Kb (r5-HT7 receptor): 398 nM
Ki (rat 5-HT7 receptor; [1]): 13 nM

FC(F)(F)c1ccc(COc2ccc(Cl)cc2OC2CCNCC2)o1 [Example 63, 4-[5-Chloro-2-(5-trifluoromethyl-furan-2-ylmethoxy)-phenoxy]-piperidine hydrochloride]
Kb (r5-HT7 receptor): 25.1 nM
Ki (human SERT): 48 nM
Ki (rat 5-HT7 receptor; [1]): 7 nM

Cc1ccc2c(c1)C(Oc1ccc(Br)cc1OC1CNC1)CC2 (racemic) [Example 156, (±)-3-[5-Bromo-2-(6-methyl-indan-1-yloxy)-phenoxy]-azetidine]
Kb (r5-HT7 receptor): > 10000 nM
Ki (rat 5-HT7 receptor; [1]): 252 nM

Fc1cccc(COc2ccc(Br)cc2OC2CCNCC2)c1 [Example 68, 4-[5-Bromo-2-(3-fluoro-benzyloxy)-phenoxy]-piperidine]
Kb (r5-HT7 receptor): 631 nM
Ki (rat 5-HT7 receptor; [1]): 17 nM

O=C(c1cccc(Cl)c1)c1ccc(Br)cc1OC1CNC1 [Example 282, [2-(Azetidin-3-yloxy)-4-bromo-phenyl]-(3-chloro-phenyl)-methanone]
Kb (r5-HT7 receptor): 200 nM
Ki (rat 5-HT7 receptor; rat 5-HT7, HEK-293 membranes): 39 nM

Clc1ccc(Oc2ccc(Cl)cc2OC2CNC2)cc1 [Example 258, 3-[5-Chloro-2-(4-chloro-phenoxy)-phenoxy]-azetidine trifluoroacetate]
Kb (r5-HT7 receptor): 501 nM
Ki (rat 5-HT7 receptor; rat 5-HT7, HEK-293 membranes): 23 nM

Brc1cccc(Oc2ccc(Br)cc2OC2CNC2)c1 [Example 245, 3-[5-Bromo-2-(3-bromo-phenoxy)-phenoxy]-azetidine]
Kb (r5-HT7 receptor): 200 nM
Ki (rat 5-HT7 receptor; rat 5-HT7, HEK-293 membranes): 9 nM

FC(F)(F)Oc1cccc(Oc2ccc(Br)cc2OC2CNC2)c1 [Example 253, 3-[5-Bromo-2-(3-trifluoromethoxy-phenoxy)-phenoxy]-azetidine]
Kb (r5-HT7 receptor): 501 nM
Ki (rat 5-HT7 receptor; rat 5-HT7, HEK-293 membranes): 18 nM

CCN1CC(Oc2cc(F)ccc2OCc2cccc(Cl)c2)C1 [Example 207, 3-[2-(3-Chloro-benzyloxy)-5-fluoro-phenoxy]-1-ethyl-azetidine]
Kb (r5-HT7 receptor): 15.8 nM
Ki (rat 5-HT7 receptor; [1]): 20 nM

Clc1ccc(Oc2ccc(Br)cc2OC2CNC2)cc1 [Example 251, 3-[5-Bromo-2-(4-chloro-phenoxy)-phenoxy]-azetidine]
Kb (r5-HT7 receptor): 158 nM
Ki (rat 5-HT7 receptor; rat 5-HT7, HEK-293 membranes): 11 nM

CC(Oc1ccc(Br)cc1OC1CNC1)c1cccc(C(F)(F)F)c1 (racemic) [Example 112, (±)-3-[5-Bromo-2-[1-(3-trifluoromethyl-phenyl)-ethoxy]-phenoxy]-azetidine]
Kb (r5-HT7 receptor): 31.6 nM
Ki (rat 5-HT7 receptor; [1]): 23 nM

O=C(c1ccc(Cl)cc1)c1ccc(Br)cc1OC1CNC1 [Example 281, [2-(Azetidin-3-yloxy)-4-bromo-phenyl]-(4-chloro-phenyl)-methanone]
Kb (r5-HT7 receptor): 316 nM
Ki (rat 5-HT7 receptor; rat 5-HT7, HEK-293 membranes): 48 nM

Clc1ccc2c(c1)C(Oc1ccc(Br)cc1OC1CNC1)CC2 (racemic) [Example 153, (±)-3-[5-Bromo-2-(6-chloro-indan-1-yloxy)-phenoxy]-azetidine]
Kb (r5-HT7 receptor): 63.1 nM
Ki (rat 5-HT7 receptor; [1]): 84 nM

CN1CC(Oc2cc(Cl)ccc2OCc2cc(CO)c(C(F)(F)F)o2)C1 [Example 77]
Ki (human SERT): 5000 nM
Ki (rat 5-HT7 receptor; [1]): 153 nM

CC(Oc1ccc(Cl)cc1OC1CNC1)c1ccccc1F (racemic) [Example 121, (±)-3-[5-Chloro-2-[1-(2-fluoro-phenyl)-ethoxy]-phenoxy]-azetidine]
Ki (human SERT): 164 nM
Ki (rat 5-HT7 receptor; [1]): 33 nM

CC(Oc1ccc(Br)cc1OC1CNC1)c1cccc(OC(F)(F)F)c1 (racemic) [Example 110, (±)-3-[5-Bromo-2-[1-(3-trifluoromethoxy-phenyl)-ethoxy]-phenoxy]-azetidine]
Ki (human SERT): 554 nM
Ki (rat 5-HT7 receptor; [1]): 90 nM

Fc1ccc(COc2ccc(Cl)cc2OC2CNC2)cc1C(F)(F)F [Example 47, 3-[5-Chloro-2-(4-fluoro-3-trifluoromethyl-benzyloxy)-phenoxy]-azetidine]
Ki (human SERT): 21 nM
Ki (rat 5-HT7 receptor; [1]): 11 nM

C[C@@H]1[C@H](Oc2cc(Br)ccc2OCc2cccc(F)c2)CN1Cc1ccccc1 (relative stereo) [Example 220, cis-1-Benzyl-3-[5-bromo-2-(3-fluoro-benzyloxy)-phenoxy]-2-methyl-azetidine]
Ki (human SERT): 789 nM
Ki (rat 5-HT7 receptor; rat 5-HT7, HEK-293 membranes): 493 nM

CC(C)(C)N1CC(Oc2cc(Br)ccc2OCc2cccc(F)c2)C1 [Example 229, 3-[5-Bromo-2-(3-fluoro-benzyloxy)-phenoxy]-1-tert-butyl-azetidine]
Ki (human SERT): 925 nM
Ki (rat 5-HT7 receptor; rat 5-HT7, HEK-293 membranes): 3 nM

Brc1ccc(OC2CCc3ccccc32)c(OC2CNC2)c1 (racemic) [Example 151, (±)-3-[5-Bromo-2-(indan-1-yloxy)-phenoxy]-azetidine]
Kb (r5-HT7 receptor): 31.6 nM
Ki (rat 5-HT7 receptor; [1]): 40 nM

CC(Oc1ccc(Cl)cc1OC1CNC1)c1ccc(F)cc1 (racemic) [Example 124, (±)-3-[5-Chloro-2-[1-(4-fluoro-phenyl)-ethoxy]-phenoxy]-azetidine]
Ki (human SERT): 20 nM
Ki (rat 5-HT7 receptor; [1]): 43 nM

CSc1cccc(COc2ccc(Cl)cc2OC2CNC2)c1 [Example 26, 3-[5-Chloro-2-(3-methylsulfanyl-benzyloxy)-phenoxy]-azetidine]
Ki (human SERT): 13 nM
Ki (rat 5-HT7 receptor; [1]): 25 nM

Cc1nc(-c2cccc(COc3ccc(Cl)cc3OC3CNC3)c2)no1 [Example 31, 3-[3-[2-(Azetidin-3-yloxy)-4-chloro-phenoxymethyl]-phenyl]-5-methyl-[1,2,4]oxadiazole hydrochloride]
Ki (human SERT): 90 nM
Ki (rat 5-HT7 receptor; [1]): 100 nM

Clc1cccc(Oc2ccc(Cl)cc2OC2CNC2)c1 [Example 257, 3-[5-Chloro-2-(3-chloro-phenoxy)-phenoxy]-azetidine maleate]
Kb (r5-HT7 receptor): 501 nM
Ki (rat 5-HT7 receptor; rat 5-HT7, HEK-293 membranes): 21 nM

Clc1ccc(OCc2ccc3occc3c2)c(OC2CNC2)c1 [Example 83, 3-[2-(Benzofuran-5-ylmethoxy)-5-chloro-phenoxy]-azetidine]
Ki (human SERT): 24 nM
Ki (rat 5-HT7 receptor; [1]): 16 nM

CC(C)C1(Oc2cc(Br)ccc2OCc2cccc(Cl)c2)CNC1 [Example 214, 3-[5-Bromo-2-(3-chloro-benzyloxy)-phenoxy]-3-isopropyl-azetidine]
Ki (human SERT): 1690 nM
Ki (rat 5-HT7 receptor; rat 5-HT7, HEK-293 membranes): 9000 nM

Clc1ccc2c(c1)CC(Oc1ccc(Cl)cc1OC1CNC1)C2 (centres unmarked) [Example 176, 3-[5-Chloro-2-(5-chloro-indan-2-yloxy)-phenoxy]-azetidine]
Ki (human SERT): 75 nM
Ki (rat 5-HT7 receptor; [1]): 24 nM
